Key:
Test in all cases: relative viability (nuclei count vs DMSO), 5 days (fraction); higher = more cells survive
201T = system: 201T
Method in brief: (§1)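 For relative viability, nuclei counts in treated wells were divided by those in vehicle wells. Lung cancer cell lines had been pin-tool dosed in 1536-well plates the day after seeding and cultured for 5 days, then fixed and stained in one step (final 0.05% Triton X-100, 1% formaldehyde, 1 ug/ml Hoechst) and imaged at 4×. Doses were one drug alone or a fixed anchor-drug dose plus five library-drug doses (not always all listed) in √10 steps, and values are duplicate-plate medians.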

ABC-1 = system: ABC-1
Method in brief: as §1

EPLC-272H = system: EPLC-272H
Method in brief: as §1

HCC-78 = system: HCC-78
Method in brief: as §1

LCLC-103H = system: LCLC-103H
Method in brief: as §1

LCLC-97TM1 = system: LCLC-97TM1
Method in brief: as §1

LOU-NH91 = system: LOU-NH91
Method in brief: as §1

NCI-H1355 = system: NCI-H1355
Method in brief: as §1

NCI-H1651 = system: NCI-H1651
Method in brief: as §1

NCI-H1734 = system: NCI-H1734
Method in brief: as §1

NCI-H1792 = system: NCI-H1792
Method in brief: as §1

NCI-H1793 = system: NCI-H1793
Method in brief: as §1

NCI-H1915 = system: NCI-H1915
Method in brief: as §1

NCI-H1993 = system: NCI-H1993
Method in brief: as §1

NCI-H2228 = system: NCI-H2228
Method in brief: as §1

NCI-H460 = system: NCI-H460
Method in brief: as §1

NCI-H650 = system: NCI-H650
Method in brief: as §1

NCI-H661 = system: NCI-H661
Method in brief: as §1

PC-3 [JPC-3] = system: PC-3 [JPC-3]
Method in brief: as §1

RERF-LC-KJ = system: RERF-LC-KJ
Method in brief: as §1

SK-MES-1 = system: SK-MES-1
Method in brief: as §1

SW 1573 = system: SW 1573
Method in brief: as §1

SMILES: Oc1nc(-c2ccc(C(F)(F)F)cc2)nc2c1CSCC2 [XAV939] + CC(=O)c1c(C)c2cnc(Nc3ccc(N4CCNCC4)cn3)nc2n(C2CCCC2)c1=O [Palbociclib] (partner 0.5 µM)
- relative viability (201T; first compound 0.08 µM): 0.362
- relative viability (201T; first compound 0.253 µM): 0.315
- relative viability (201T; first compound 0.8 µM): 0.338
- relative viability (201T; first compound 2.53 µM): 0.3
- relative viability (ABC-1; first compound 0.253 µM): 0.587
- relative viability (ABC-1; first compound 0.8 µM): 0.578
- relative viability (ABC-1; first compound 2.53 µM): 0.343
- relative viability (EPLC-272H; first compound 0.08 µM): 0.342
- relative viability (EPLC-272H; first compound 0.253 µM): 0.251
- relative viability (EPLC-272H; first compound 0.8 µM): 0.305
- relative viability (EPLC-272H; first compound 2.53 µM): 0.332
- relative viability (HCC-78; first compound 0.08 µM): 0.479
- relative viability (HCC-78; first compound 0.253 µM): 0.382
- relative viability (HCC-78; first compound 0.8 µM): 0.466
- relative viability (HCC-78; first compound 2.53 µM): 0.527
- relative viability (LCLC-103H; first compound 0.08 µM): 0.53
- relative viability (LCLC-103H; first compound 0.253 µM): 0.499
- relative viability (LCLC-103H; first compound 0.8 µM): 0.514
- relative viability (LCLC-103H; first compound 2.53 µM): 0.449
- relative viability (LCLC-97TM1; first compound 0.08 µM): 0.237
- relative viability (LCLC-97TM1; first compound 0.253 µM): 0.204
- relative viability (LCLC-97TM1; first compound 2.53 µM): 0.232
- relative viability (LOU-NH91; first compound 0.08 µM): 0.609
- relative viability (LOU-NH91; first compound 0.253 µM): 0.54
- relative viability (LOU-NH91; first compound 0.8 µM): 0.54
- relative viability (LOU-NH91; first compound 2.53 µM): 0.419
- relative viability (NCI-H1355; first compound 0.08 µM): 0.401
- relative viability (NCI-H1355; first compound 0.253 µM): 0.319
- relative viability (NCI-H1355; first compound 0.8 µM): 0.351
- relative viability (NCI-H1355; first compound 2.53 µM): 0.282
- relative viability (NCI-H1651; first compound 0.08 µM): 0.566
- relative viability (NCI-H1651; first compound 0.253 µM): 0.521
- relative viability (NCI-H1651; first compound 0.8 µM): 0.529
- relative viability (NCI-H1651; first compound 2.53 µM): 0.462
- relative viability (NCI-H1734; first compound 0.08 µM): 0.346
- relative viability (NCI-H1734; first compound 0.253 µM): 0.3
- relative viability (NCI-H1734; first compound 0.8 µM): 0.321
- relative viability (NCI-H1734; first compound 2.53 µM): 0.357
- relative viability (NCI-H1792; first compound 0.08 µM): 0.777
- relative viability (NCI-H1792; first compound 0.253 µM): 0.425
- relative viability (NCI-H1792; first compound 0.8 µM): 0.675
- relative viability (NCI-H1792; first compound 2.53 µM): 0.558
- relative viability (NCI-H1793; first compound 0.08 µM): 0.353
- relative viability (NCI-H1793; first compound 0.253 µM): 0.317
- relative viability (NCI-H1793; first compound 0.8 µM): 0.307
- relative viability (NCI-H1793; first compound 2.53 µM): 0.281
- relative viability (NCI-H1915; first compound 0.08 µM): 0.592
- relative viability (NCI-H1915; first compound 0.253 µM): 0.54
- relative viability (NCI-H1915; first compound 0.8 µM): 0.567
- relative viability (NCI-H1915; first compound 2.53 µM): 0.511
- relative viability (NCI-H1993; first compound 0.08 µM): 0.617
- relative viability (NCI-H1993; first compound 0.253 µM): 0.474
- relative viability (NCI-H1993; first compound 0.8 µM): 0.469
- relative viability (NCI-H1993; first compound 2.53 µM): 0.5
- relative viability (NCI-H2228; first compound 0.08 µM): 0.971
- relative viability (NCI-H2228; first compound 0.253 µM): 0.613
- relative viability (NCI-H2228; first compound 0.8 µM): 0.664
- relative viability (NCI-H2228; first compound 2.53 µM): 0.657
- relative viability (NCI-H460; first compound 0.08 µM): 0.223
- relative viability (NCI-H460; first compound 0.253 µM): 0.177
- relative viability (NCI-H460; first compound 0.8 µM): 0.12
- relative viability (NCI-H460; first compound 2.53 µM): 0.0927
- relative viability (NCI-H650; first compound 0.08 µM): 0.376
- relative viability (NCI-H650; first compound 0.253 µM): 0.35
- relative viability (NCI-H650; first compound 0.8 µM): 0.333
- relative viability (NCI-H650; first compound 2.53 µM): 0.303
- relative viability (NCI-H661; first compound 0.08 µM): 0.407
- relative viability (NCI-H661; first compound 0.253 µM): 0.394
- relative viability (NCI-H661; first compound 0.8 µM): 0.409
- relative viability (NCI-H661; first compound 2.53 µM): 0.388
- relative viability (PC-3 [JPC-3]; first compound 0.253 µM): 0.5
- relative viability (PC-3 [JPC-3]; first compound 0.8 µM): 0.523
- relative viability (PC-3 [JPC-3]; first compound 2.53 µM): 0.485
- relative viability (RERF-LC-KJ; first compound 0.08 µM): 1.13
- relative viability (RERF-LC-KJ; first compound 0.253 µM): 0.828
- relative viability (RERF-LC-KJ; first compound 0.8 µM): 1.02
- relative viability (RERF-LC-KJ; first compound 2.53 µM): 0.761
- relative viability (SK-MES-1; first compound 0.08 µM): 0.288
- relative viability (SK-MES-1; first compound 0.253 µM): 0.299
- relative viability (SK-MES-1; first compound 0.8 µM): 0.338
- relative viability (SK-MES-1; first compound 2.53 µM): 0.297
- relative viability (SW 1573; first compound 0.08 µM): 0.414
- relative viability (SW 1573; first compound 0.253 µM): 0.3
- relative viability (SW 1573; first compound 0.8 µM): 0.326
- relative viability (SW 1573; first compound 2.53 µM): 0.279
